Laboratory results taken from patent US20160081968A1, “COMPOSITION FOR USE IN REDUCING SCAB FORMATION AND PROMOTING HEALING” (BIOGLAN AB, priority 2013, published 2016).

Test system: bacteria (e.g. S. aureus, B. subtilis, Pseud. aeuruginosa)
Assay: Antimicrobial activity of glyceryl monolaurate
Assay type: cell-based
From the text: The compositions have an inbuilt antimicrobial system which gives less need for preservatives. The antimicrobial activity of the composition is partly due to the presence of hydrogen peroxide and partly due to the presence of glyceryl monolaurate. […] In combination with hydrogen peroxide, a synergistic effect is achieved and antimicrobial activity according to A criteria is obtained against also yeast (e.g. Candida albicans) and molds (Aspergillus niger). This was shown by performing a preservative effectiveness test according to the PhEur method. Acceptance criteria A is the most strict criteria according to PhEur. Criteria B is less strict.

In the case of `CCCCCCCCCCCC(=O)OCC(O)CO` (stereo not shown) [Glyceryl monolaurate], the “antimicrobial activity against bacteria” value is reported as “antimicrobially active against bacteria”.
